The assay concerns the target T1, human MGAT2 (Homo sapiens, UniProt Q3SYC2).
T1 construct: made in house; host or cells: Pichia pastoris (vector pPICZA), membrane fraction
The assay is described as follows: MGAT2 inhibitory activity test. It is filed as biochemical. The following applies: MGAT2-expressed yeast membrane fraction, [14C]-oleoyl-CoA, 37° C. for 30 minutes. Here is the method: Human MGAT2 genes were amplified by PCR using primers described below from human cDNA library (Clontech).
The amplified human MGAT2 genes were introduced into a yeast expression vector pPICZA (Invitrogen). The resultant expression plasmid was introduced into an yeast (Pichia pastris) by electroporation to produce a recombinant yeast. The recombinant yeast was cultured in the presence of 0.5% methanol for 72 hours, and the cells were crushed using glass beads in 10 mM Tris pH 7.5, 250 mM sucrose and 1 mM EDTA, followed by adjusting the membrane fraction by centrifugation to use the adjusted membrane fraction as an enzyme source.
To the reaction solution, 100 μl of 2-propanol/heptan (80:20) was added, the mixture was stirred well, followed by addition of 200 μl of heptane and further stirring the mixture. After centrifugation, the heptane layer was collected, 80 μl of ethanol/0.1N NaOH/H2O (50:5:45) was added, the mixture was thus stirred, followed by recentrifuging the mixture and collecting the heptane layer. After exsiccation of the resultant heptane layer, 100 μl of Microscint 0 (PerkinElmer) was added, and the radioactivity was measured with a liquid scintillation counter. The inhibitory activity was calculated from the following formula:
Inhibition rate=100−(radioactivity in case of addition of test compound−background)/(radioactivity in case of addition of no test compound−background)×100
wherein the background means the radioactivity in case of addition of no membrane fraction.
T1 sequence (Q3SYC2 whole entry): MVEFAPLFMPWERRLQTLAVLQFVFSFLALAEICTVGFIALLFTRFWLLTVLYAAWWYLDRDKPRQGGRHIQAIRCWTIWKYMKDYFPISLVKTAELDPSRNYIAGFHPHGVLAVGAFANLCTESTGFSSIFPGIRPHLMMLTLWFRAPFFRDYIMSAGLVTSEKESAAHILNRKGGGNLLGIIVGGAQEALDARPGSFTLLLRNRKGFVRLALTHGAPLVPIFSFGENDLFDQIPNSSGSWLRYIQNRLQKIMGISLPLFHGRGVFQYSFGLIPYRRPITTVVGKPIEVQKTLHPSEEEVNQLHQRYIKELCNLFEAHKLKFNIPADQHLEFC
In turn, `O=c1c2c(nc(SCc3ccccc3)n1-c1ccccc1)CCN(c1nc3cc(F)c(F)cc3[nH]1)C2` [Example 1, 6-(5,6-difluoro-1H-benzimidazol-2-yl)-3-phenyl-2-[(phenylmethyl)thio]-5,6,7,8-tetrahydropyrido[4,3-d]pyrimidin-4(3H)-one] had a concentration for half-maximal inhibition (IC50) of 817 nM.
In the case of `O=c1c2c(nc(SCc3cccnc3)n1-c1ccccc1)CCN(c1nc3cc(C(F)(F)F)ccc3[nH]1)C2` [Example 3, 3-phenyl-2-[(pyridin-3-ylmethyl)thio]-6-[5-(trifluoromethyl)-1H-benzimidazol-2-yl]-5,6,7,8-tetrahydropyrido[4,3-d]pyrimidin-4(3H)-one] it was 56 nM.
On to `O=c1c2c(nc(SCc3ccccc3)n1-c1ccccc1)CCN(c1nc3cc(C(F)(F)F)ccc3[nH]1)C2` [Example 2, 6-(5-trifluoromethyl-1H-benzimidazol-2-yl)-3-phenyl-2-[(phenylmethyl)thio]-5,6,7,8-tetrahydropyrido[4,3-d]pyrimidin-4(3H)-one], for which inhibition was half-maximal at 184 nM (IC50).
The compound `O=c1c2c(nc(SCc3ccnnc3)n1-c1ccccc1)CCN(c1nc3cc(C(F)(F)F)ccc3[nH]1)C2` [Example 4, 3-phenyl-2-[(pyridazin-4-ylmethyl)thio]-6-[5-(trifluoromethyl)-1H-benzimidazol-2-yl]-5,6,7,8-tetrahydropyrido[4,3-d]pyrimidin-4(3H)-one] had a concentration for half-maximal inhibition (IC50) of 114 nM.

Values taken from patent US20110275647A1, “PYRIMIDIN-4-(3H)-ONE DERIVATIVES” (MSD K.K., priority 2009, published 2011).
